# Target: T1, human RORgT (Homo sapiens, UniProt P51449)
# T1 construct: expressed in transfected cells
# T1 sequence (P51449 267-516): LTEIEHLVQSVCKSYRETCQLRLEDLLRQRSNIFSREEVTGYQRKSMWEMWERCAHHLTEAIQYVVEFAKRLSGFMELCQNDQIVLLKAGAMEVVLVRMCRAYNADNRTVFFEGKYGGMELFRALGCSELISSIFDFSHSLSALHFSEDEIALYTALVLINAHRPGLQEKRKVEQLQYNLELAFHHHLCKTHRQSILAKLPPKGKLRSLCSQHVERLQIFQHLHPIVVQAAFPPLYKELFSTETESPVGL
# Test: RORgT Gal4 Luciferase Reporter Gene Assay
# Assay type: cell-based
# Details: engineered Jurkat cells overexpressing RORgT (LBD or full length) fused with Gal4 Luc reporter; 18 hours at 37° C.; luminescence
# Method in brief: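 Jurkat cells expressing Gal4 Luc with either RORgT LBD (aa267-516) or full-length human RORgT, 10,000 cells/well, treated with compound (40 µM to 0.67 nM final, 3-fold dilutions) for 18 h at 37° C. Steady-Glo luminescence read; inhibition of constitutive activity as % signal-window reduction relative to a control compound.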
row,EC50 [nM],Compound
1,90,"NS(=O)(=O)CC(=O)N1CC[C@@]2(S(=O)(=O)c3ccc(F)cc3)c3ccc(OCc4c(F)cccc4C(F)(F)F)cc3CC[C@@H]12 [Example 185, 2-[(3aR,9bR)-7-{[2-fluoro-6-(trifluoromethyl)phenyl]methoxy}-9b-(4-fluorobenzenesulfonyl)-1H,2H,3H,3aH,4H,5H,9bH-benzo[e]indol-3-yl]-2-oxoethane-1-sulfonamide]"
2,3.6,"O=C(O)[C@H]1CC[C@](O)(C(=O)N2CC[C@@]3(S(=O)(=O)c4ccc(F)cc4)c4ccc(OCc5cc(Cl)ccc5Cl)cc4CC[C@@H]23)CC1 [Example 112, (1 s,4 s)-4-[(3aR,9bR)-7-[(2,5-dichlorophenyl)methoxy]-9b-(4-fluorobenzenesulfonyl)-1H,2H,3H,3aH,4H,5H,9bH-benzo[e]indole-3-carbonyl] -4-hydroxycyclohexane-1-carboxylic acid]"
3,83,"CN1CCC(C(=O)N2CC[C@@]3(S(=O)(=O)c4ccccc4)c4ccc(OCc5c(Cl)cccc5Cl)cc4CC[C@@H]23)CC1=O (stereo partly drawn) [Example 55, 4-[(3aR,9bR)-9b-(benzenesulfonyl)-7-[(2,6-dichlorophenyl)methoxy]-1H,2H,3H,3aH,4H,5H,9bH-benzo[e]indole-3-carbonyl]-1-methylpiperidin-2-one]"
4,6.1,"CN1C(=O)CC[C@H]1C(=O)N1CC[C@@]2(S(=O)(=O)c3ccccc3)c3ccc(OCc4c(F)cccc4Cl)cc3CC[C@@H]12 [Example 150, (5S)-5-[(3aR,9bR)-9b-(benzenesulfonyl)-7-[(2-chloro-6-fluorophenyl)methoxy]-1H,2H,3H,3aH,4H,5H,9bH-benzo[e]indole-3-carbonyl]-1-methylpyrrolidin-2-one]"
5,194,"O=C(Nc1ccnnc1)N1CC[C@@]2(S(=O)(=O)c3ccccc3)c3ccc(OCc4c(Cl)cccc4Cl)cc3CC[C@@H]12 [Example 95, (3aR,9bR)-9b-(benzenesulfonyl)-7-[(2,6-dichlorophenyl)methoxy]-N-(pyridazin-4-yl)-1H,2H,3H,3aH,4H,5H,9bH-benzo[e]indole-3-carboxamide]"
6,68,"CN1CCC(C(=O)N2CC[C@@]3(S(=O)(=O)c4ccc(F)cc4)c4ccc(OCc5c(F)cccc5C(F)(F)F)cc4CC[C@@H]23)CC1 [Example 184, 4-[(3aR,9bR)-7-{[2-fluoro-6-(trifluoromethyl)phenyl]methoxy}-9b-(4-fluorobenzenesulfonyl)-1H,2H,3H,3aH,4H,5H,9bH-benzo[e]indole-3-carbonyl]-1-methylpiperidine]"
7,7.5,"O=C(C1CCS(=O)(=O)CC1)N1CC[C@@]2(S(=O)(=O)c3ccc(F)cc3)c3ccc(OCc4cc(Cl)ccc4Cl)cc3CC[C@@H]12 [Example 200, 4-[(3aR,9bR)-7-[(2,5-dichlorophenyl)methoxy]-9b-(4-fluorobenzenesulfonyl)-1H,2H,3H,3aH,4H,5H,9bH-benzo[e]indole-3-carbonyl]-1λ^6-thiane-1,1-dione]"
8,7.5,"Cc1ccccc1Oc1ccc2c(c1)CC[C@H]1N(C(=O)C3(C)CCS(=O)(=O)CC3)CC[C@@]21S(=O)(=O)c1ccc(F)cc1 [Example 48, 4-[(3aR,9bR)-9b-(4-fluorobenzenesulfonyl)-7-(2-methylphenoxy)-1H,2H,3H,3aH,4H,5H,9bH-benzo[e]indole-3-carbonyl]-4-methyl-1λ^6-thiane-1,1-dione]"
9,314,"CCOC(=O)CNC(=O)N1CC[C@@]2(S(=O)(=O)c3ccccc3)c3ccc(OCc4c(Cl)cccc4Cl)cc3CC[C@@H]12 [Example 73, ethyl 2-{[(3aR,9bR)-9b-(benzenesulfonyl)-7-[(2,6-dichlorophenyl)methoxy]-1H,2H,3H,3aH,4H,5H,9bH-benzo[e]indole-3-carbonyl]amino}acetate]"
10,9.9,"NC(=O)N1CCC(C(=O)N2CC[C@@]3(S(=O)(=O)c4ccc(F)cc4)c4ccc(OCc5cc(F)c(F)cc5Cl)cc4CC[C@@H]23)CC1 [Example 210, 4-[(3aR,9bR)-7-[(2-chloro-4,5-difluorophenyl)methoxy]-9b-(4-fluorobenzenesulfonyl)-1H,2H,3H,3aH,4H,5H,9bH-benzo[e]indole-3-carbonyl] piperidine-1-carboxamide]"
11,12,"O=C(C1CCS(=O)(=O)C1)N1CC[C@@]2(S(=O)(=O)c3ccc(F)cc3)c3ccc(OCc4c(F)cc(F)cc4Cl)cc3CC[C@@H]12 (stereo partly drawn) [Example 218, 3-[(3aR,9bR)-7-[(2-chloro-4,6-difluorophenyl)methoxy]-9b-(4-fluorobenzenesulfonyl)-1H,2H,3H,3aH,4H,5H,9bH-benzo[e]indole-3-carbonyl]-1λ^6-thiolane-1,1-dione]"
12,75,"CS(=O)(=O)CC(=O)N1CC[C@@]2(S(=O)(=O)c3ccc(F)cc3)c3ccc(OCc4c(F)cccc4C(F)(F)F)cc3CC[C@@H]12 [Example 188, 1-[(3aR,9bR)-7-{[2-fluoro-6-(trifluoromethyl)phenyl]methoxy}-9b-(4-fluorobenzenesulfonyl)-1H,2H,3H,3aH,4H,5H,9bH-benzo[e]indol-3-yl]-2-methanesulfonylethan-1-one]"
13,157,"CN1CCC(C(=O)N2CC[C@@]3(S(=O)(=O)c4ccc(F)cc4)c4ccc(OCc5c(F)cc(F)cc5Cl)cc4CC[C@@H]23)CC1 [Example 215, 4-[(3aR,9bR)-7-[(2-chloro-4,6-difluorophenyl)methoxy]-9b-(4-fluorobenzenesulfonyl)-1H,2H,3H,3aH,4H,5H,9bH-benzo[e]indole-3-carbonyl]-1-methylpiperidine]"
14,667,"O=C1CCCN1CCN1CC[C@@]2(S(=O)(=O)c3ccccc3)c3ccc(OCc4c(Cl)cccc4Cl)cc3CC[C@@H]12 [Example 71, 1-{2-[(3aR,9bR)-9b-(benzenesulfonyl)-7-[(2,6-dichlorophenyl)methoxy]-1H,2H,3H,3aH,4H,5H,9bH-benzo[e]indol-3-yl]ethyl}pyrrolidin-2-one]"
15,28,"CC(=O)N1CCC(C(=O)N2CC[C@@]3(S(=O)(=O)c4ccc(F)cc4)c4ccc(OCc5ccc(F)cc5Cl)cc4CC[C@@H]23)CC1 [Example 207, 1-{4-[(3aR,9bR)-7-[(2-chloro-4-fluorophenyl)methoxy]-9b-(4-fluorobenzenesulfonyl)-1H,2H,3H,3aH,4H,5H,9bH-benzo[e]indole-3-carbonyl]piperidin-1-yl}ethan-1-one]"
16,14,CC1(C(=O)N2CC[C@@]3(S(=O)(=O)c4ccc(F)cc4)c4ccc(OCc5c(F)cccc5C(F)(F)F)cc4CC[C@@H]23)CCS(=O)(=O)CC1 [Example 19]
17,8.4,"O=C(O)[C@H]1CC[C@H](C(=O)N2CC[C@@]3(S(=O)(=O)c4ccc(F)cc4)c4ccc(OCc5c(F)cccc5Cl)cc4CC[C@@H]23)CC1 [Example 1, (1r,4r)-4-[(3aR,9bR)-7-[(2-chloro-6-fluorophenyl)methoxy]-9b-(4-fluorobenzenesulfonyl)-1H,2H,3H,3aH,4H,5H,9bH-benzo[e]indole-3-carbonyl]cyclohexane-1-carboxylic acid]"
18,42,"O=C([C@@H](O)C(F)(F)F)N1CC[C@@]2(S(=O)(=O)c3ccc(F)cc3)c3ccc(OCc4c(F)cccc4C(F)(F)F)cc3CC[C@@H]12 [Example 20, (2R)-1-[(3aR,9bR)-7-{[2-fluoro-6-(trifluoromethyl)phenyl]methoxy} -9b-(4-fluorobenzenesulfonyl)-1H,2H,3H,3aH,4H,5H,9bH-benzo[e]indol-3-yl]-3,3,3-trifluoro-2-hydroxypropan-1-one]"
19,2.7,"O=C(O)[C@H]1CC[C@H](C(=O)N2CC[C@@]3(S(=O)(=O)c4ccc(Cl)cc4)c4ccc(OCc5c(F)cccc5C(F)(F)F)cc4CC[C@@H]23)CC1 [Example 111, (1r,4r)-4-[(3aR,9bR)-9b-(4-chlorobenzenesulfonyl)-7-{[2-fluoro-6-(trifluoromethyl)phenyl]methoxy} -1H,2H,3H,3aH,4H,5H,9bH-benzo[e]indole-3-carbonyl]cyclohexane-1-carboxylic acid]"
20,104,"O=C(O)C12CCC(C(=O)N3CC[C@@]4(S(=O)(=O)c5ccccc5)c5ccc(OCc6c(F)cccc6Cl)cc5CC[C@@H]34)(CC1)CC2 [Example 147, 4-[(3aR,9bR)-9b-(benzenesulfonyl)-7-[(2-chloro-6-fluorophenyl)methoxy]-1H,2H,3H,3aH,4H,5H,9bH-benzo[e]indole-3-carbonyl]bicyclo[2.2.2]octane-1-carboxylic acid]"
21,7.1,"O=C(O)[C@H]1CC[C@H](C(=O)N2CC[C@@]3(S(=O)(=O)c4ccc(F)cc4)c4ccc(Cc5c(F)cccc5Cl)cc4CC[C@@H]23)CC1 [Example 5, (1R,4r)-4-((3aR,9bR)-7-(2-chloro-6-fluorobenzyl)-9b-((4-fluorophenyl)sulfonyl)-2,3,3a,4,5,9b-hexahydro-1H-benzo[e]indole-3-carbonyl)cyclohexanecarboxylic acid]"
22,14,"O=C(CN1CCS(=O)(=O)CC1)N1CC[C@@]2(S(=O)(=O)c3ccc(F)cc3)c3ccc(OCc4c(Cl)cccc4Cl)cc3CC[C@@H]12 [Example 173, 4-{2-[(3aR,9bR)-7-[(2,6-dichlorophenyl)methoxy]-9b-(4-fluorobenzenesulfonyl)-1H,2H,3H,3aH,4H,5H,9bH-benzo[e]indol-3-yl]-2-oxoethyl}-1λ^6-thiomorpholine-1,1-dione]"
23,10,"N#CCCN1C(=O)CC[C@H]1C(=O)N1CC[C@@]2(S(=O)(=O)c3ccc(F)cc3)c3ccc(OCc4c(F)cccc4Cl)cc3CC[C@@H]12 [Example 160, 3-[(2S)-2-[(3aR,9bR)-7-[(2-chloro-6-fluorophenyl)methoxy]-9b-(4-fluorobenzenesulfonyl)-1H,2H,3H,3aH,4H,5H,9bH-benzo[e]indole-3-carbonyl]-5-oxopyrrolidin-l-yl]propanenitrile]"
